Assays:
[1] = target: Tau-RD3 (Tau repeat domain 3) (Homo sapiens, UniProt P10636); assay: Tau disaggregation test by Thioflavin-T analysis; type: biochemical; conditions: for EC50: Tau-RD3 35 µM aggregated 24 hours, then compound 0 - 500 µM for 48 hours at 37 °C, concentration disaggregating 50 % of aggregates vs control, read-out: EC50 (µM) Tau; for disaggregation effect for tau protein aggregates: statement in words summarising the Thioflavin-T results
Protocol: (§1) Each compound was dissolved in DMSO to a concentration of 10 mM. Then, the compounds were diluted with 6 % DMSO (in DW) for use.
(§2) Amyloid-beta and tau solutions were prepared by dissolving Aβ1-42 or Tau-RD3 (Tau repeat domain 3) monomers in DMSO to a concentration of 10 mM. Then, the solutions were diluted to 100 µM with DW and stored on ice.
(§3) Meanwhile, Thioflavin-T was dissolved in 50 mM glycine buffer (pH 8.5) to a concentration of 5 mM. Then, the solution was diluted to 5 µM with 50 mM glycine buffer (pH 8.5) and stored in the dark, protected from light.
(§4) The amyloid-beta and tau solutions prepared in Example 1.1 were each placed in 1.5 mL microcentrifuge tubes to a concentration of 50 µM or 35 µM, respectively, and then reacted at 37 °C for 24 hours.
(§5) To each 1.5 mL microcentrifuge tube in which the amyloid-beta and tau aggregation was complete, the compounds were added at concentrations ranging from 500 µM down to 0 µM by serial dilution, and then further reacted at 37 °C for 48 hours.
(§6) 25 µL of each completed reaction solution was added to each well of a 96-well fluorescence analysis plate, and 75 µL of the Thioflavin-T solution was added to each well. After reacting for 5 minutes at room temperature in the dark, the fluorescence value was measured at 450 nm (excitation) and 485 nm (emission) using a multi-mode microplate reader.
(§7) The fluorescence value of the group (control group) treated with only amyloid-beta or tau and aggregated for 72 hours was designated as 100 %. The fluorescence values measured after treating the amyloid-beta and tau aggregates (formed by reacting for 24 hours) with each compound by concentration and reacting for an additional 48 hours were converted to relative values.

[2] = target: T1, Aβ1-42 (Homo sapiens, UniProt P05067); assay: Amyloid-beta disaggregation test by Thioflavin-T analysis; type: biochemical; conditions: for EC50: Aβ1-42 50 µM aggregated 24 hours, then compound 0 - 500 µM for 48 hours at 37 °C, concentration disaggregating 50 % of aggregates vs control, read-out: EC50 (µM) Aβ; for disaggregation effect for amyloid-beta protein aggregates: statement in words summarising the Thioflavin-T results
T1 construct: dissolving Aβ1-42 or Tau-RD3 (Tau repeat domain 3) monomers in DMSO
T1 sequence (P05067 672-713 limits assumed): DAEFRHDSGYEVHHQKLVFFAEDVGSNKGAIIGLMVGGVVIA
Protocol: as §1, §2, §3, §4, §5, §6, §7

Sequence of Tau-RD3 (Tau repeat domain 3) (P10636 623-653 limits assumed): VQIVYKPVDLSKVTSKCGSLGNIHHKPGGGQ

In the case of `Cn1cc(C2=C(c3cccnc3)C(=O)c3cc(O)ccc32)cn1` [Compound 42-7, 6-hydroxy-3-(1-methyl-1H-pyrazol-4-yl)-2-(pyridin-3-yl)-1H-inden-1-one], the EC50 [1] is reported as 100 to 250 µM and the EC50 [2] is reported as > 250 µM.

With `Cc1ncsc1C1=C(c2cccnc2)C(=O)c2cc(NCCCc3ccccc3)ccc21` [Compound 20, 3-(4-methylthiazol-5-yl)-6-((3-phenylpropyl)amino)-2-(pyridin-3-yl)-1H-inden-1-one] the EC50 [1] was < 20 µM, the “disaggregation effect for tau protein aggregates” value [1] was “remarkably excellent disaggregation effect” and the EC50 [2] was < 20 µM. The “disaggregation effect for amyloid-beta protein aggregates” value [2] was “remarkably excellent disaggregation effect”.

`Cc1ncsc1C1=C(c2cccnc2)C(=O)c2cc(NC(=O)C3CCOCC3)ccc21` [Compound 61, N-(3-(4-methylthiazol-5-yl)-1-oxo-2-(pyridin-3-yl)-1H-inden-6-yl)tetrahydro-2H-pyran-4-carboxamide] was tested, and the EC50 [1] was > 250 µM and the EC50 [2] was > 250 µM.

`COCCOc1ccc2c(c1)C(=O)C(c1cccnc1)=C2c1scnc1C` [Compound 37, 6-(2-methoxyethoxy)-3-(4-methylthiazol-5-yl)-2-(pyridin-3-yl)-1H-inden-1-one] gave an EC50 [1] of 20 to 100 µM and an EC50 [2] of 20 to 100 µM.

`Cc1scnc1C1=C(c2cccnc2)C(=O)c2cc(O)ccc21` [Compound 23-10, 6-hydroxy-3-(5-methylthiazol-4-yl)-2-(pyridin-3-yl)-1H-inden-1-one] was tested, and the EC50 [1] was 20 to 100 µM and the EC50 [2] was > 250 µM.

`Cc1ncsc1C1=C(c2scnc2C)c2ccc(OCCCc3ccccc3)cc2C1=O` [Compound 77, 2,3-bis(4-methylthiazol-5-yl)-6-(3-phenylpropoxy)-1H-inden-1-one] was tested, and the EC50 [1] was < 20 µM and the EC50 [2] was < 20 µM.

For `CN1CCN(c2cccc(C3=C(c4ccccc4)C(=O)c4ccccc43)c2)CC1` [Compound 95, 3-(3-(4-methylpiperazin-1-yl)phenyl)-2-phenyl-1H-inden-1-one], the EC50 [1] was > 250 µM and the EC50 [2] was 20 to 100 µM.

`Cc1ncsc1C1=C(c2cccnc2)C(=O)c2cc(NC(=O)CCc3ccccc3)ccc21` [Compound 60, N-(3-(4-methylthiazol-5-yl)-1-oxo-2-(pyridin-3-yl)-1H-inden-6-yl)-3-phenylpropanamide] was tested, and the EC50 [1] was < 20 µM and the EC50 [2] was 20 to 100 µM.

In the case of `Nc1ccc2c(c1)C(=O)C(c1ccccc1)=C2c1ccccc1` [Compound 68, 6-amino-2,3-diphenyl-1H-inden-1-one], the EC50 [1] is reported as > 250 µM and the EC50 [2] is reported as > 250 µM.

With `CNc1ccc2c(c1)C(=O)C(c1ccccc1)=C2c1ccccc1` [Compound 67, 6-(methylamino)-2,3-diphenyl-1H-inden-1-one] the EC50 [1] was > 250 µM and the EC50 [2] was > 250 µM.

With `Cc1ccccc1C1=C(c2ccccc2)C(=O)c2ccccc21` [Compound 5, 2-phenyl-3-(o-tolyl)-1H-inden-1-one] the EC50 [1] was > 250 µM and the EC50 [2] was 20 to 100 µM.

For `O=C1C(c2ccccc2)=C(c2ccccc2)c2ncccc21` [Compound 98, 6,7-diphenyl-5H-cyclopenta[b]pyridin-5-one], the EC50 [1] was > 250 µM and the EC50 [2] was > 250 µM.

In the case of `Cc1ncsc1C1=C(c2cccnc2)C(=O)c2cc(Oc3ccccc3)ccc21` [Compound 66, 3-(4-methylthiazol-5-yl)-6-phenoxy-2-(pyridin-3-yl)-1H-inden-1-one], the EC50 [1] is reported as < 20 µM, the “disaggregation effect for tau protein aggregates” value [1] is reported as “remarkably excellent disaggregation effect” and the EC50 [2] is reported as < 20 µM. For the same molecule, the “disaggregation effect for amyloid-beta protein aggregates” value [2] was “remarkably excellent disaggregation effect”.

`Cn1cc(C2=C(c3cccnc3)C(=O)c3cc(OCCCc4ccccc4)ccc32)cn1` [Compound 42, 3-(1-methyl-1H-pyrazol-4-yl)-6-(3-phenylpropoxy)-2-(pyridin-3-yl)-1H-inden-1-one] was tested, and the EC50 [1] was > 250 µM and the EC50 [2] was > 250 µM.

`Cc1ncsc1C1=C(c2cccc(CN3CCOCC3)c2)C(=O)c2ccccc21` [Compound 89, 3-(4-methylthiazol-5-yl)-2-(3-(morpholinomethyl)phenyl)-1H-inden-1-one] showed an EC50 [1] of 100 to 250 µM and an EC50 [2] of 20 to 100 µM.

`CN1CCN(c2ccc3c(c2)C(=O)C(c2cccc(N4CCOCC4)c2)=C3c2ccccc2)CC1` [Compound 73, 6-(4-methylpiperazin-1-yl)-2-(3-morpholinophenyl)-3-phenyl-1H-inden-1-one] showed an EC50 [1] of 100 to 250 µM and an EC50 [2] of 100 to 250 µM.

With `O=C1C(c2cccc(N3CCOCC3)c2)=C(c2ccccc2)c2ccc(Cl)cc21` [Compound 73-7, 6-chloro-2-(3-morpholinophenyl)-3-phenyl-1H-inden-1-one] the EC50 [1] was > 250 µM and the EC50 [2] was < 20 µM.

`Cc1ncsc1C1=C(c2cccnc2)C(=O)c2cc(N3CCN(C)CC3)ccc21` [Compound 64, 6-(4-methylpiperazin-1-yl)-3-(4-methylthiazol-5-yl)-2-(pyridin-3-yl)-1H-inden-1-one] gave an EC50 [1] of 100 to 250 µM and an EC50 [2] of 20 to 100 µM.

`Cc1ncsc1C1=C(c2cccnc2)C(=O)c2cc(NC3CCCC3)ccc21` [Compound 49, 6-(cyclopentylamino)-3-(4-methylthiazol-5-yl)-2-(pyridin-3-yl)-1H-inden-1-one] was tested, and the EC50 [1] was > 250 µM and the EC50 [2] was < 20 µM.

In the case of `CC(C)(C)c1cc(C2=C(c3ccccc3)C(=O)c3ccccc32)cc(C(C)(C)C)c1` [Compound 96, 3-(3,5-di-tert-butylphenyl)-2-phenyl-1H-inden-1-one], the EC50 [1] is reported as > 250 µM and the EC50 [2] is reported as > 250 µM.

With `Cc1ncsc1C1=C(c2ccccn2)C(=O)c2cc(OCCCc3ccccc3)ccc21` [Compound 40, 3-(4-methylthiazol-5-yl)-6-(3-phenylpropoxy)-2-(pyridin-2-yl)-1H-inden-1-one] the EC50 [1] was > 250 µM and the EC50 [2] was < 20 µM.

`Cc1ncsc1C1=C(c2cccnc2)C(=O)c2cc(NCCO)ccc21` [Compound 53, 6-((2-hydroxyethyl)amino)-3-(4-methylthiazol-5-yl)-2-(pyridin-3-yl)-1H-inden-1-one] was tested, and the EC50 [1] was > 250 µM and the EC50 [2] was > 250 µM.

With `O=C1C(c2ccccc2)=C(Br)c2ccccc21` [Compound 5-4, 3-bromo-2-phenyl-1H-inden-1-one] the EC50 [1] was < 20 µM, the “disaggregation effect for tau protein aggregates” value [1] was “remarkably excellent disaggregation effect” and the EC50 [2] was < 20 µM. The “disaggregation effect for amyloid-beta protein aggregates” value [2] was “remarkably excellent disaggregation effect”.

For `Cc1ncsc1C1=C(c2cnccn2)C(=O)c2cc(O)ccc21` [Compound 41-4, 6-hydroxy-3-(4-methylthiazol-5-yl)-2-(pyrazin-2-yl)-1H-inden-1-one], the EC50 [1] was > 250 µM and the EC50 [2] was > 250 µM.

In the case of `O=C1C(c2ccccc2)=C(c2ccc(N3CCOCC3)cc2)c2ccccc21` [Compound 14, 3-(4-morpholinophenyl)-2-phenyl-1H-inden-1-one], the EC50 [1] is reported as > 250 µM and the EC50 [2] is reported as < 20 µM.

Work on `Cc1ncsc1C1=C(c2cccnc2)C(=O)c2cc(N)ccc21` [Compound 59, 6-amino-3-(4-methylthiazol-5-yl)-2-(pyridin-3-yl)-1H-inden-1-one] yielded an EC50 [1] of 20 to 100 µM and an EC50 [2] of 20 to 100 µM.

`Cc1ncsc1C1=C(c2cn(C)nn2)C(=O)c2cc(OCCCc3ccccc3)ccc21` [Compound 32, 2-(1-methyl-1H-1,2,3-triazol-4-yl)-3-(4-methylthiazol-5-yl)-6-(3-phenylpropoxy)-1H-inden-1-one] was tested, and the EC50 [1] was < 20 µM and the EC50 [2] was < 20 µM.

`O=C1C(Br)=C(c2ccccc2)c2ccccc21` [Compound 6-2, 2-bromo-3-phenyl-1H-inden-1-one] was tested, and the EC50 [1] was < 20 µM and the EC50 [2] was 20 to 100 µM.

For `Cc1cccc(C)c1C1=C(c2ccccc2)C(=O)c2cc(Cl)ccc21` [Compound 72-7, 6-chloro-3-(2,6-dimethylphenyl)-2-phenyl-1H-inden-1-one], the EC50 [1] was > 250 µM and the EC50 [2] was < 20 µM.

With `Cc1ncsc1C1=C(c2scnc2C)c2ccc(N3CCN(CCO)CC3)cc2C1=O` [Compound 81, 6-(4-(2-hydroxyethyl)piperazin-1-yl)-2,3-bis(4-methylthiazol-5-yl)-1H-inden-1-one] the EC50 [1] was 20 to 100 µM and the EC50 [2] was 20 to 100 µM.

Work on `Cc1ncsc1C1=C(c2cccnc2)C(=O)c2cc(OCCO)ccc21` [Compound 36, 6-(2-hydroxyethoxy)-3-(4-methylthiazol-5-yl)-2-(pyridin-3-yl)-1H-inden-1-one] yielded an EC50 [1] of 20 to 100 µM and an EC50 [2] of 100 to 250 µM.

With `O=C1C(c2ccccc2)=C(c2ccc(CN3CCOCC3)cc2)c2ccccc21` [Compound 16, 3-(4-(morpholinomethyl)phenyl)-2-phenyl-1H-inden-1-one] the EC50 [1] was > 250 µM and the EC50 [2] was 20 to 100 µM.

`Cc1ncsc1C1=C(c2cccnc2)C(=O)c2cc(N(C)CCCc3ccccc3)ccc21` [Compound 38, 6-(methyl(3-phenylpropyl)amino)-3-(4-methylthiazol-5-yl)-2-(pyridin-3-yl)-1H-inden-1-one] was tested, and the EC50 [1] was > 250 µM and the EC50 [2] was < 20 µM.
